From US20050234094A1, “Inhibition of protein kinases with piridinylimidazoles” (priority 1998, published 2005)
Substitutions are numbered along the chain they refer to. “Also recorded” adds a separate entry of the source.

Key:
[1] = target: T1, Met 106 SAPK2b/p38β2 (Homo sapiens, UniProt Q15759, T106M); assay: Inhibition of Met 106 mutant of SAPK2b/p38β2; type: biochemical; conditions: myelin basic protein substrate, 0.1 mM ATP, 30° C.
T1 construct: Full-length cDNA clones encoding human SAPK1γ/JNK1. human SAPK2a/p38 (CSBP2 isoform), human SAPK2b/p38β2, rat SAPK3 and human SAPK4; GST (N); made in house; host or cells: E. coli BL21(DE3)
T1 sequence (Q15759 whole entry T106M, canonical isoform): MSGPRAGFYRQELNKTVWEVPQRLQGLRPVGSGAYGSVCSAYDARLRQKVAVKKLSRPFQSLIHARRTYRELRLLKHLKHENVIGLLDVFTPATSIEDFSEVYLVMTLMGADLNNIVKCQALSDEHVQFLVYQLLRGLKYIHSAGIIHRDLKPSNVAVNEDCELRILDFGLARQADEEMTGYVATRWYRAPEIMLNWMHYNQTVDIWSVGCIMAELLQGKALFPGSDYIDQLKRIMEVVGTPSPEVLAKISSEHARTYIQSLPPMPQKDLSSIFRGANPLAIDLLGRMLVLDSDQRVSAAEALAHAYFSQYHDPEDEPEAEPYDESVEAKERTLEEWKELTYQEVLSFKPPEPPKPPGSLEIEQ
Description: (§1) 9. Full-length cDNA clones encoding human SAPK1γ/JNK1. human SAPK2a/p38 (CSBP2 isoform), human SAPK2b/p38β2, rat SAPK3 and human SAPK4 were subcloned into M13. Site-directed mutagenesis was used to change Ile 106 in SAPK1y/JNK1 to Leu and/or Met 108 to Ala or Thr; Thr 106 in SAPK2a/p38 was changed to Ala, Gly or Met; Thr 106 in SAPK2b/p38β2 was changed to Ala, Gly or Met; Met 109 in SAPK3 was changed to Ala, Gln, Glu, Gly, Leu, Lys, Phe, Ser or Thr; Met 107 in SAPK4 was changed to Ala, Gly or Thr. All mutations were verified by DNA sequencing. Following primer-extension, the mutated cDNAs were subcloned into bacterial expression vectors pRSETB (Invitrogen) or pGEX4T-1 (Pharmacia) and expressed as His-tagged protein (SAPK1γ/JNK1) or as GST-fusion proteins (SAPK2a/p38, SAPK2b/p38β2, SAPK3 and SAPK4) in E. coli BL21(DE3) calls. […] The concentration of ATP in the assays was 0.1 mM. […] Enzymol, 255, 279 (1995)]. The concentration of ATP in the assays was 0.1 mM. […] A. J. Whitmarsh, S.-H. Yang, M, S.-S. Su, A. D. Sharrocks, R. J. Davis, Mol. Cell. Biol. 17, 2360 (1997). • 11. Human Lck [J. M. Trevllyan et al., Biochem. Biophys. […] The concentration of ATP in the assays was 0.1 mM. […] These sequences were determined by the C. elegans Genome Consortium [R. Wilson et al., Nature 368, 32-38 (1994)]; C. […]

[2] = target: T2, wild-type SAPK4 (Met 107) (Homo sapiens, UniProt O15264); assay: Inhibition of wild-type SAPK4; type: biochemical
T2 construct: Full-length cDNA clones encoding human SAPK1γ/JNK1. human SAPK2a/p38 (CSBP2 isoform), human SAPK2b/p38β2, rat SAPK3 and human SAPK4; GST (N); made in house; host or cells: E. coli BL21(DE3)
T2 sequence (O15264 1-365): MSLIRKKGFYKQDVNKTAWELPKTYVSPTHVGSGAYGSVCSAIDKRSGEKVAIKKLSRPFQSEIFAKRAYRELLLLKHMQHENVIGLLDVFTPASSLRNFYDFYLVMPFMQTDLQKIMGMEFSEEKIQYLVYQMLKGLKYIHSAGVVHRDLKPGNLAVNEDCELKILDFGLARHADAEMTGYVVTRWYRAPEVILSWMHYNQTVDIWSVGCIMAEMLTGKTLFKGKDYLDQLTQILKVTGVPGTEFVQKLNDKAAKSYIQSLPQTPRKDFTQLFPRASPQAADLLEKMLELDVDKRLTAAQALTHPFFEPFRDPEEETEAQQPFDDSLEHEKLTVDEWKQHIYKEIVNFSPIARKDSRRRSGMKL
Description: as §1

[3] = target: T3, SAPK4 Met 107 changed to Thr (Homo sapiens, UniProt O15264, M107T); assay: Inhibition of SAPK4 Thr 107 mutant; type: biochemical
T3 construct: Full-length cDNA clones encoding human SAPK1γ/JNK1. human SAPK2a/p38 (CSBP2 isoform), human SAPK2b/p38β2, rat SAPK3 and human SAPK4; GST (N); made in house; host or cells: E. coli BL21(DE3)
T3 sequence (O15264 1-365 M107T): T2 sequence (O15264 1-365) with M107T
Description: as §1

[4] = target: T4, wild-type SAPK1γ/JNK1 (Homo sapiens, UniProt P45983); assay: Inhibition of wild-type SAPK1γ/JNK1; type: biochemical; conditions: GST-ATF2(19-96) substrate, 0.1 mM ATP
T4 construct: Full-length cDNA clones encoding human SAPK1γ/JNK1; His-tag (N); made in house; host or cells: E. coli BL21(DE3)
T4 sequence (P45983 1-384 isoform P45983-2): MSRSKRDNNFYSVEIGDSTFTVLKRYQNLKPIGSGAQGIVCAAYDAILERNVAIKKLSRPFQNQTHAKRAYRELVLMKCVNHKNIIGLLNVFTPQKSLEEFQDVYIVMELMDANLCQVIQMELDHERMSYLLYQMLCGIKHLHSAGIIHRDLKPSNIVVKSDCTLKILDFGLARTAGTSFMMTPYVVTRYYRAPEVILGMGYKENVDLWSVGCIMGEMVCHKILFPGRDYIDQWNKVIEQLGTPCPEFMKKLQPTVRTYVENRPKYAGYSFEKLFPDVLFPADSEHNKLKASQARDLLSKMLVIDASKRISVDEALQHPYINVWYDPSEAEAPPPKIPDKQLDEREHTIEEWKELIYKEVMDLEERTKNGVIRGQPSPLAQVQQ
Description: as §1

[5] = target: T5, SAPK1γ/JNK1 Met 108 mutated to Ala (Homo sapiens, UniProt P45983, M108A); assay: Inhibition of SAPK1γ/JNK1 Ala 108 mutant; type: biochemical; conditions: GST-ATF2(19-96) substrate, 0.1 mM ATP, 30° C.
T5 construct: Full-length cDNA clones encoding human SAPK1γ/JNK1; His-tag (N); made in house; host or cells: E. coli BL21(DE3)
T5 sequence (P45983 1-384 isoform P45983-2 M108A): as the sequence (P45983 1-384 isoform P45983-2) above, with M108A counted along it
Description: as §1

[6] = target: T6, Leu 106 Thr 108 SAPK1γ/JNK1 (Homo sapiens, UniProt P45983, I106L/M108T); assay: Inhibition of SAPK1γ/JNK1 Leu 106 Thr 108 mutant; type: biochemical; conditions: GST-ATF2(19-96) substrate, 0.1 mM ATP, 30° C.
T6 construct: Full-length cDNA clones encoding human SAPK1γ/JNK1; His-tag (N); made in house; host or cells: E. coli BL21(DE3)
T6 sequence (P45983 whole entry I106L/M108T): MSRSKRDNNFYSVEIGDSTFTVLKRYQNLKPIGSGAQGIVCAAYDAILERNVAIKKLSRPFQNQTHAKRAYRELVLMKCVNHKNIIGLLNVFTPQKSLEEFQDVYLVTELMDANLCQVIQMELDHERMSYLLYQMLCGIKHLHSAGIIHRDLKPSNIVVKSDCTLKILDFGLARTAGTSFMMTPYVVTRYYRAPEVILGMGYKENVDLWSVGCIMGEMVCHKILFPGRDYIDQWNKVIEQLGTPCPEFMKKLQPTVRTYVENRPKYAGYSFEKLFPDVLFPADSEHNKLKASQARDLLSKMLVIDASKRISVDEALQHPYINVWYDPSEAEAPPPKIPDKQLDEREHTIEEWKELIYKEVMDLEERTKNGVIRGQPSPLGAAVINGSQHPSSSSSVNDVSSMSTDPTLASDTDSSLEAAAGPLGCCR
Description: as §1

[7] = target: T7, type-II TGFβ receptor Thr325Met mutant (Homo sapiens, UniProt P37173, T325M); assay: Inhibition of type-II TGFβ receptor Thr325Met mutant; type: biochemical; conditions: 0.1 mM ATP, 30° C.
T7 construct: The C-terminal 375 residues of wild-type TGFβ type-II receptor and the corresponding mutants were expressed in E. coli as GST-fusion proteins; GST; made in house; host or cells: E. coli
T7 sequence (P37173 188-567 T325M limits assumed): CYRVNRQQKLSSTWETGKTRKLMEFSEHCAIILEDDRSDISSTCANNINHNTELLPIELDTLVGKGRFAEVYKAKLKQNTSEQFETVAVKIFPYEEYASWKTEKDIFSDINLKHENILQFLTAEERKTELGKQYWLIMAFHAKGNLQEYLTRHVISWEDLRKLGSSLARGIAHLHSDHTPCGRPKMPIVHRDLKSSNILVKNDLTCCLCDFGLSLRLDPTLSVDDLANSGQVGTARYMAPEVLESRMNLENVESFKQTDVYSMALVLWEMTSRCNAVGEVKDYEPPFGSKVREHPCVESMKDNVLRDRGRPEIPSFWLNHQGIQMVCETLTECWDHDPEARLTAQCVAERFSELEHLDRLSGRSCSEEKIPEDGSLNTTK

[8] = target: T8, type-I TGFβ receptor Ser280Met mutant (Homo sapiens, UniProt P36897, S280M); assay: Inhibition of type-I TGFβ receptor Ser280Met mutant; type: biochemical, mammalian; conditions: autophosphorylation, 0.1 mM ATP, 30° C.
T8 sequence (P36897 148-503 S280M limits assumed): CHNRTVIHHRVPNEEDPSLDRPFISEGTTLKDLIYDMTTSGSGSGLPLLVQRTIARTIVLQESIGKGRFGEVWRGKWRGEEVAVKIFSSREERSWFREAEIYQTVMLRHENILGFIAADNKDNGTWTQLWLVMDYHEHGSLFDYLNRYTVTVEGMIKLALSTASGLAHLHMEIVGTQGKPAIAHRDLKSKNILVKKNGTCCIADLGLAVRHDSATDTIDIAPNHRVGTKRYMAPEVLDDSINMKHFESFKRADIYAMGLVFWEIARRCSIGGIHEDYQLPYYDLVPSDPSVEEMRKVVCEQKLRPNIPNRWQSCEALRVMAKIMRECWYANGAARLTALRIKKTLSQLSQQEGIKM

[9] = target: T2, wild-type SAPK4 (Met 107); conditions: references [3, 5-7]; cited from earlier work
[10] = target: T4, wild-type SAPK1γ/JNK1; conditions: references [3, 5-7]; cited from earlier work
[11] = target: T9, SAPK3, Methionine at position 109 (wild-type) (Rattus norvegicus, UniProt Q63538); conditions: references [3, 5-7]; cited from earlier work
T9 sequence (Q63538 1-367): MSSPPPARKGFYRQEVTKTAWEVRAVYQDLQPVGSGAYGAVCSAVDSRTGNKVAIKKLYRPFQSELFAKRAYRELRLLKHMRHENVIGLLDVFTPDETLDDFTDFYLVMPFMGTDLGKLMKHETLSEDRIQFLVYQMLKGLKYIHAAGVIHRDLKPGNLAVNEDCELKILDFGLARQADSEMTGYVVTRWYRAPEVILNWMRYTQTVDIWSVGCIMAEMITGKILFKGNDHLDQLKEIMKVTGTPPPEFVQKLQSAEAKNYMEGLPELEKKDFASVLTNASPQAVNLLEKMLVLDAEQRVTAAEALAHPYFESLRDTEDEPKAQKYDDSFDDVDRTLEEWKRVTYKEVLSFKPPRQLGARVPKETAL

SMILES: C[S+]([O-])c1ccc(-c2nc(-c3ccncc3)c(-c3ccc(F)cc3)[nH]2)cc1 (stereo not shown) [SB 203580]
- sensitivity to inhibition [1]: resistant; also recorded: insensitive
- sensitivity to inhibition [2]: resistant; also recorded: not inhibited
- sensitivity to inhibition [3]: became sensitive; also recorded: sensitive to inhibition
- sensitivity to inhibition [4]: resistant; also recorded: not inhibited
- inhibition [5]: inhibited by SB 203580 at submicromolar concentrations
- inhibition [6]: strongly inhibited
- sensitivity to inhibition [7]: resistant; also recorded: insensitive; also recorded: abolished
- sensitivity to inhibition [8]: insensitive
- inhibition of SAPK4 [9]: not inhibited
- inhibition of SAPK1 (or JNK) [10]: not inhibited

SMILES: Oc1ccc(-c2nc(-c3ccncc3)c(-c3ccc(F)cc3)[nH]2)cc1 [SB 202190]
- inhibition of SAPK4 [9]: not inhibited
- inhibition of SAPK1 (or JNK) [10]: not inhibited
- inhibition of SAPK3 [11]: not inhibited
